Results published in patent US10273236B2, “Macrocyclic factor XIa inhibitors bearing heterocyclic groups” (Bristol-Myers Squibb Company, priority 2014, dated 2019).
Where a name gives a salt, the structure may show the parent alone. Read-outs that look alike come from different tables or passages of the source.

What was measured:
[1] = from C=CC[C@H](NC(=O)OC(C)(C)C)c1cc(-c2c(NC(=O)C(C=C)C(C)C)cnn2C)ccn1; rcm bond; 12-membered ring; Grubbs II (40 mol%); DCE; 36.7 mM; 120.0 °C
[2] = rcm bond, 12-membered ring
[3] = biological target: T1, purified human plasma kallikrein (Homo sapiens, UniProt P03952); assay: Plasma kallikrein inhibition assay, chromogenic substrate S-2302 (Ki); type: biochemical
T1 construct: Plasma prekallikrein is a zymogen of a trypsin-like serine protease; purchased Enzyme Research Laboratories
Outline: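 Purified human plasma kallikrein (200 pM final) with chromogenic substrate S-2302 at 0.00008-0.0004 M in 0.1 M sodium phosphate pH 7.5, 0.1-0.2 M NaCl, 0.5% PEG 8000. Velocities measured over 20-180 min with and without inhibitor; Ki derived assuming competitive inhibition, e.g. Ki=IC50/(1+S/Km).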

[4] = biological target: T2, purified human Factor XIa (Homo sapiens, UniProt P03951); assay: Factor XIa inhibition assay, chromogenic substrate S-2366 (Ki); type: biochemical
T2 construct: purchased Haematologic Technologies
Outline: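 Purified human FXIa (25-200 pM final) with S-2366 (0.0002-0.001 M) in 50 mM HEPES pH 7.4, 145 mM NaCl, 5 mM KCl, 0.1% PEG 8000. Velocities of absorbance change measured over 20-180 min with inhibitor present; Ki calculated for competitive inhibition from rates or IC50 via Ki=IC50/(1+S/Km).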

[5] = biological target: factor XIa (Homo sapiens, UniProt P03951); conditions: value taken from WO 2014/022767, Table 1, page 89; cited from earlier work
Sequence of factor XIa (P03951 388-625 limits assumed): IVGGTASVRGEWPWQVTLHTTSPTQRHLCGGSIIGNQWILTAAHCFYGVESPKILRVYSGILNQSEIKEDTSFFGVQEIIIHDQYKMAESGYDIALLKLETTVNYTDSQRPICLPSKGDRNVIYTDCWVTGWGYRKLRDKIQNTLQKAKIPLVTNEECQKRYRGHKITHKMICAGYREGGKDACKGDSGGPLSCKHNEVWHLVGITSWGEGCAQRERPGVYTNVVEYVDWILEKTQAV
Sequence of factor XIa (P03951 19-387 partner limits assumed): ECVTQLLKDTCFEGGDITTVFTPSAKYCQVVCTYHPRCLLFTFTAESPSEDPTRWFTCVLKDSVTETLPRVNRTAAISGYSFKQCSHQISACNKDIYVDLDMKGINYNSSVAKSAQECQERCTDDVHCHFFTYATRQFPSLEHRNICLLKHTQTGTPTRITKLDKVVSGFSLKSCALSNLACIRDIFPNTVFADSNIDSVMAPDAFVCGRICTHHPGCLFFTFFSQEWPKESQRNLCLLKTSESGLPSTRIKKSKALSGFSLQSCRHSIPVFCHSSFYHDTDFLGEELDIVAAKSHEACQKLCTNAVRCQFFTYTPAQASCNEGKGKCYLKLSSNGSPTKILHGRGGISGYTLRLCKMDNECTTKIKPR

T1 sequence (P03952 391-638 limits assumed): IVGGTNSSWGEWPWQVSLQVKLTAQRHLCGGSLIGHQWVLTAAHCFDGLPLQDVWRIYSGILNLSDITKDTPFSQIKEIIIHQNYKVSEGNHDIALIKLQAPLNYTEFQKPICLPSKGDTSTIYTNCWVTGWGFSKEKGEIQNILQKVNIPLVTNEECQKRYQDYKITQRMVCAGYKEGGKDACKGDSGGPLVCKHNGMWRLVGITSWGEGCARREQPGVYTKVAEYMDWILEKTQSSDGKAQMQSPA
T1 sequence (P03952 20-390 partner limits assumed): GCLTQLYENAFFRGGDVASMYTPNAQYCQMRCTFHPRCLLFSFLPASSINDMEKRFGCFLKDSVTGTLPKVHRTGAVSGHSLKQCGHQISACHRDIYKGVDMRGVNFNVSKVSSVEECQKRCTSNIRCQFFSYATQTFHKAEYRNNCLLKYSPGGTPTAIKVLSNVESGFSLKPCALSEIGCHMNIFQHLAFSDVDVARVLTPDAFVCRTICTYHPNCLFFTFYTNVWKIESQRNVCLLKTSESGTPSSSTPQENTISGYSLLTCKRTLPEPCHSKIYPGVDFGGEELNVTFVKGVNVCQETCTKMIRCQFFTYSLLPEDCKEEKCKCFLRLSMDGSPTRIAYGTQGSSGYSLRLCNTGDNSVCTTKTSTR
T2 sequence (P03951 388-625 limits assumed): as the sequence (P03951 388-625 limits assumed) above
T2 sequence (P03951 19-387 partner limits assumed): as the sequence (P03951 19-387 partner limits assumed) above

| SMILES | Ki [3] [nM] | Ki [4] [nM] | also measured |
| --- | --- | --- | --- |
| CC(C)[C@@H]1/C=C/C[C@H](NC(=O)OC(C)(C)C)c2cc(ccn2)-c2c(cnn2C)NC1=O | – | – | ring closure, yield after HPLC [1]: 16.8% |
| CC(C)[C@H]1/C=C/C[C@H](NC(=O)OC(C)(C)C)c2cc(ccn2)-c2c(cnn2C)NC1=O | – | – | ring closure, yield after HPLC [1]: 16.8% |
| C[C@@H]1/C=C/C[C@H](NC(=O)OC(C)(C)C)c2cc(ccn2)-c2c(cnn2C(F)F)NC1=O | – | – | ring closure, isolated yield ([2]; from C=CC[C@H](NC(=O)OC(C)(C)C)c1cc(-c2c(NC(=O)[C@H](C)C=C)cnn2C(F)F)ccn1, Grubbs II (25 mol%), EtOAc, 5.0 mM): 76% |
| C[C@@H]1/C=C/C[C@H](NC(=O)OC(C)(C)C)c2cc(ccn2)-c2c(cnn2C)NC1=O | – | – | ring closure, isolated yield ([2]; from C=CC[C@H](NC(=O)OC(C)(C)C)c1cc(-c2c(NC(=O)[C@H](C)C=C)cnn2C)ccn1, Grubbs II (40 mol%), DCE, 78.3 mM, 120.0 °C): 20% |
| C[C@@H]1/C=C/C[C@H](NC(=O)OC(C)(C)C)c2cccc(n2)-c2c(cnn2C)NC1=O | – | – | ring closure, isolated yield ([2]; from C=CC[C@H](NC(=O)OC(C)(C)C)c1cccc(-c2c(NC(=O)[C@H](C)C=C)cnn2C)n1, Grubbs II (40 mol%), EtOAc, 13.2 mM, 80.0 °C): 66% |
| C[C@@H]1/C=C/C[C@H](NC(=O)OCc2ccccc2)c2cc(ccn2)-c2c(cnn2CCOC(C)(C)C)NC1=O | – | – | ring closure, isolated yield ([2]; from C=CC[C@H](NC(=O)OCc1ccccc1)c1cc(-c2c(NC(=O)[C@H](C)C=C)cnn2CCOC(C)(C)C)ccn1, Grubbs II (40 mol%), DCE, 35.6 mM, 120.0 °C, 0.5 h): 38% |
| C[C@@H]1CCC[C@H](N2CCC(c3cc(Cl)ccc3-n3ccnn3)=CC2=O)c2cc(ccn2)-c2c(cnn2C2CCC2)NC1=O [Example 54, (9R,13S)-13-{4-[5-chloro-2-(1H-1,2,3-triazol-1-yl)phenyl]-6-oxo-1,2,3,6-tetrahydropyridin-1-yl}-3-cyclobutyl-9-methyl-3,4,7,15-tetraazatricyclo[12.3.1.0^2,6]octadeca-1(18),2(6),4,14,16-pentaen-8-one] | 150 | 7.1 | – |
| C[C@@H]1CCC[C@H](N2CCC(c3cc(Cl)ccc3-n3cc(Cl)nn3)=CC2=O)c2cc(ccn2)-c2c(cnn2C(F)F)NC1=O [Example 55, (9R,13S)-13-{4-[5-chloro-2-(4-chloro-1H-1,2,3-triazol-1-yl)phenyl]-6-oxo-1,2,3,6-tetrahydropyridin-1-yl}-3-(difluoromethyl)-9-methyl-3,4,7,15-tetraazatricyclo[12.3.1.0^2,6]octadeca-1(18),2(6),4,14,16-pentaen-8-one] | 6 | 0.1 | – |
| C[C@@H]1CCC[C@H](N2CCC(c3cc(Cl)ccc3-n3cc(Cl)nn3)=CC2=O)c2cc(ccn2)-c2c(cnn2C2CC2(F)F)NC1=O (stereo partly drawn) [Example 56, (9R,13S)-13-{4-[5-chloro-2-(4-chloro-1H-1,2,3-triazol-1-yl)phenyl]-6-oxo-1,2,3,6-tetrahydropyridin-1-yl}-3-(2,2-difluorocyclopropyl)-9-methyl-3,4,7,15-tetraazatricyclo[12.3.1.0^2,6]octadeca-1(18),2(6),4,14,16-pentaen-8-one] | 30 | 0.36 | – |
| C[C@@H]1CCC[C@H](N2CCC(c3cc(Cl)ccc3C#N)=CC2=O)c2cc(ccn2)-c2c(cnn2C)NC1=O [Example 57, 4-chloro-2-{1-[(9R,13S)-3,9-dimethyl-8-oxo-3,4,7,15-tetraazatricyclo[12.3.1.0^2,6]octadeca-1(18),2(6),4,14,16-pentaen-13-yl]-6-oxo-1,2,3,6-tetrahydropyridin-4-yl}benzonitrile] | 14 | 4 | – |
| C[C@@H]1CCC[C@H](N2CCC(c3c(F)ccc(Cl)c3F)=CC2=O)c2cc(ccn2)-c2cn[nH]c2NC1=O [Example 221] | – | – | Ki [5]: 1320 nM |

The next lines start with results.

| Ki [3] [nM] | Ki [4] [nM] | SMILES | also measured |
| --- | --- | --- | --- |
| 46 | 2.4 | C[C@@H]1CCC[C@H](N2CCC(c3cc(Cl)ccc3-n3cc(Cl)nn3)=CC2=O)c2cc(ccn2)-c2[nH]ncc2NC1=O [Example 58, (9R,13S)-13-{4-[5-chloro-2-(4-chloro-1H-1,2,3-triazol-1-yl)phenyl]-6-oxo-1,2,3,6-tetrahydropyridin-1-yl}-9-methyl-3,4,7,15-tetraazatricyclo[12.3.1.0^2,6]octadeca-1(18),2(6),4,14,16-pentaen-8-one] | – |
| 4 | 0.1 | C[C@@H]1CCC[C@H](N2CCC(c3cc(Cl)ccc3-n3cc(Cl)nn3)=CC2=O)c2cc(F)cc(c2)-c2c(cnn2C)NC1=O [Example 59, (9R,13S)-13-{4-[5-chloro-2-(4-chloro-1H-1,2,3-triazol-1-yl)phenyl]-6-oxo-1,2,3,6-tetrahydropyridin-1-yl}-16-fluoro-3,9-dimethyl-3,4,7-triazatricyclo[12.3.1.0^2,6]octadeca-1(18),2(6),4,14,16-pentaen-8-one] | – |
| 22 | 7.2 | C[C@@H]1CCC[C@H](N2CCC(c3c(C(F)(F)F)ccc(Cl)c3F)=CC2=O)c2cc(ccn2)-c2c(cnn2C2CC2)NC1=O [Example 60, (9R,13S)-13-{4-[3-chloro-2-fluoro-6-(trifluoromethyl)phenyl]-6-oxo-1,2,3,6-tetrahydropyridin-1-yl}-3-cyclopropyl-9-methyl-3,4,7,15-tetraazatricyclo[12.3.1.0^2,6]octadeca-1(18),2(6),4,14,16-pentaen-8-one] | – |
| 66 | 0.51 | C[C@@H]1CCC[C@H](n2ncc(-c3cc(Cl)ccc3-n3cc(C(F)(F)F)nn3)cc2=O)c2cc(ccn2)-c2c(cnn2C)NC1=O [Example 61, (9R,13S)-13-(4-{5-chloro-2-[4-(trifluoromethyl)-1H-1,2,3-triazol-1-yl]phenyl}-6-oxo-1,6-dihydropyridazin-1-yl)-3,9-dimethyl-3,4,7,15-tetraazatricyclo[12.3.1.02,6]octadeca-1(18),2(6),4,14,16-pentaen-8-one trifluoroacetate] | – |
| 6 | 0.1 | [2H]C([2H])([2H])n1ncc2c1-c1ccnc(c1)[C@@H](n1ccc(-c3cc(Cl)ccc3-n3cc(C(F)(F)F)nn3)cc1=O)CCC[C@@H](C)C(=O)N2 [Example 62, (9R,13S)-13-(4-{5-Chloro-2-[4-(trifluoromethyl)-1H-1,2,3-triazol-1-yl]phenyl}-2-oxo-1,2-dihydropyridin-1-yl)-3-(^2H3)methyl-9-methyl-3,4,7,15-tetraazatricyclo[12.3.1.0^2,6]octadeca-1(18),2(6),4,14,16-pentaen-8-one, trifluoroacetate] | – |
| 77 | 0.52 | [2H]C([2H])([2H])n1ncc2c1-c1ccnc(c1)[C@@H](n1ncc(-c3cc(Cl)ccc3-n3cc(C(F)(F)F)nn3)cc1=O)CCC[C@@H](C)C(=O)N2 [Example 63, (9R,13S)-13-(4-{5-Chloro-2-[4-(trifluoromethyl)-1H-1,2,3-triazol-1-yl]phenyl}-6-oxo-1,6-dihydropyridazin-1-yl)-3-(^2H3)methyl-9-methyl-3,4,7,15-tetraazatricyclo[12.3.1.0^2,6]octadeca-1(18),2(6),4,14,16-pentaen-8-one trifluoroacetate] | – |
| 52.6 | 0.71 | [2H]C([2H])([2H])n1ncc2c1-c1cc(ccn1)[C@@H](n1ncc(-c3cc(Cl)ccc3-n3cc(C(F)(F)F)nn3)cc1=O)CCC[C@@H](C)C(=O)N2 [Example 64, (9R,13S)-13-(4-{5-Chloro-2-[4-(trifluoromethyl)-1H-1,2,3-triazol-1-yl]phenyl}-6-oxo-1,6-dihydropyridazin-1-yl)-3-(^2H3)methyl-9-methyl-3,4,7,17-tetraazatricyclo[12.3.1.0^2,6]octadeca-1(18),2(6),4,14,16-pentaen-8-one] | – |
